Measured values as given in US6660762B2, “Methods and compositions to treat lung diseases” (priority 2001, dated 2003).
“Also recorded” adds a separate entry of the source. Where two headings read alike, the source gives them in different places. Marks after values point to notes of the source that are not given here.

Assays:
[1] = molecular target: T1, Beryllium bound to oxyhemoglobin (Be—Hb) (Homo sapiens, UniProt P68871+P69905); assay: Chelation of hemoglobin bound beryllium by porphyrins (removal of beryllium from Be-Hb); assay type: binding; details: for effect on amount of beryllium associated with hemoglobin (in words): incubation of Be-Hb with porphyrin
T1 construct: purchased Sigma H7379
T1 sequence (P69905 2-142 limits assumed): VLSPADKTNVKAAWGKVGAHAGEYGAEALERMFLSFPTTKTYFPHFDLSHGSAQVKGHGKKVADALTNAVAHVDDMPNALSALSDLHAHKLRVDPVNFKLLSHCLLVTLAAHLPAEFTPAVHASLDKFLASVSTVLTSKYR
T1 sequence (P68871 2-147 limits assumed): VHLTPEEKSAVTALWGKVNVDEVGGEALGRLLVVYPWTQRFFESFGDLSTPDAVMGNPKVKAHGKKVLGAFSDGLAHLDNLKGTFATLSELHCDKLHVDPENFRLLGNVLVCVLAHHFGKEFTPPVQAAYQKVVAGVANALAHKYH
Protocol: Beryllium bound to oxyhemoglobin (Be—Hb) was prepared as described in Section 2.1 (above). To determine if the test porphyrins were able to remove beryllium from hemoglobin, porphyrins were added to the hemoglobin solution at 2.5 times the Be concentration of the solution. One hundred μl of 7.1 mM porphyrin solution (or 100 μl of HBS for controls) was added to 1 ml of […]. This mixture was incubated at 37° C. for 30 minutes. Following incubation, the entire mixture was loaded into a Centricon YM-30 molecular weight cutoff filter. This filter retains molecules with a molecular weight >30,000 (i.e., hemoglobin) and allows smaller molecules (i.e. porphyrin, free beryllium) to pass through. The samples were centrifuged to concentrate hemoglobin on the filter and then washed with 500 μl of HBS to remove any porphyrin or beryllium trapped in the hemoglobin concentrate. Hemoglobin concentrates were collected in 100 μl of HBS according to the manufacturer's instructions. The concentrates were then diluted to 3 mls with HBS. Hemoglobin concentration of each sample was determined spectrophotometrically with Drabkin's reagent. Beryllium content of each sample was determined by ICP-AAS.

C3H/HEJ mice = assay: Toxicity of aerosolized porphyrins in mice (group bodyweight); assay type: in vivo
Excerpt: Toxicity of the three porphyrins were studied. Porphyrins were delivered via aerosols into mice. It is considered that beryllium-lung burdened mice will provide in vivo data for the removal of beryllium via urinary secretion tests.
Aqueous solutions of the three porphyrins were aerosolized using a constant-flow Pulmo-Mist pump and nebulizer syste and delivered into cages each housing five female 20+ week old C3H/HEJ mice over a period of twenty days. The group bodyweights of these mice were measured each morning prior to aerosol treatment. Regimens included multiple, constant dosing and dose escalation. Mice in cages receiving multiple doses of 9 mg of one of the select porphyrins began to lose weight (up to 14%) by the third day of treatment. […] Treatments with two porphyrins generally reflected lower and delayed evidence of toxicity compared to that observed with one of the select porphyrins (phthalocyanine tetrasulfonate porphyrin, meso-tetra (4-carboxyphenyl) porphyrin, meso-tetra (4-sulfonatophenyl) porphyrin). Younger mice (about 6 weeks old) were generally more tolerant than older mice, but the rank order of porphyrin toxicity was the same.

Human hemoglobin = molecular target: T2, Human hemoglobin (Homo sapiens, UniProt P68871+P69905); assay: Binding of beryllium to various hemoglobins (Sephadex G-25 separation, ICP-AAS); details: incubation at 37° C. for 30 minutes; Be:Hb 2.5:1
T2 construct: purchased Sigma H7379
T2 sequence (P69905 2-142 limits assumed): as the sequence (P69905 2-142 limits assumed) above
T2 sequence (P68871 2-147 limits assumed): as the sequence (P68871 2-147 limits assumed) above
Protocol: These experiments used beryllium nitrate (Aldrich 46,503-8) as a soluble form of beryllium. […] This precipitate was probably an insoluble beryllium phosphate complex. Due to the insolubility of beryllium in PBS at necessary concentrations, experiments were carried out in N-2hydroxyethylpiperazine-N′-2-ethane-sulfonic acid (HEPES)-buffered saline (HBS). HEPES is commonly used as a buffer for biochemical experiments in the physiological pH range. HBS contained 10 mM HEPES, sodium chloride, and potassium chloride, pH 7.4.
Human hemoglobin (Sigma H7379) was dissolved in HBS at a concentration of 40 mg/ml. This hemoglobin was >95% methemoglobin. To reduce the iron and form oxyhemoglobin, 5 mM sodium hydrosulfite was added to the hemoglobin solution. This solution was then dialyzed overnight at 4° C. against HBS to remove residual sodium hydrosulfite. To form carboxyhemoglobin, oxyhemoglobin was gently bubbled with carbon monoxide for 5 minutes. Identity of hemoglobins was confirmed by spectrophotometry prior to experimentation.
Beryllium nitrate was added to a solution of hemoglobin at a molar ratio of 2.5:1 (B e: Hb). This mixture was incubated at 37° C. for 30 minutes. During incubation with beryllium some precipitation of hemoglobin occurred. Precipitate was removed from the samples by centrifugation. Samples of hemoglobin with no beryllium were used as negative controls. Experiments were performed on oxy-, met-, and carboxyhemoglobin.
To isolate beryllium bound to hemoglobin (Be—Hb) from free beryllium, samples were passed through a 1 cm×25 cm Sephadex G-25 column equilibrated in HBS. One milliliter fractions of column eluate were collected. These fractions were diluted to 5 ml with distilled water. The hemoglobin content of each fraction was determined by use of Drabkin's reagent. Beryllium content of each fraction was determined by inductively coupled plasma atomic absorption spectrophotometry (ICP-AAS). A flow chart of this procedure is presented as FIG. 1.

[2] = Binding of beryllium to porphyrins by proton NMR in deuterium oxide; details: no buffer
Protocol: Initial experiments utilized HBS prepared in deuterium oxide (deuterated water, D2O) to eliminate the protons of water. This was not successful as the HEPES in the buffer also contains protons that interfered with the analysis. Therefore, experiments were conducted with porphyrins 1-5 dissolved in deuterium oxide. Porphyrins were analyzed in the presence and absence of beryllium-Spectra were collected on a 500 MHz JEOL.

Molecule: O=C(O)c1ccc(-c2c3nc(c(-c4ccc(C(=O)O)cc4)c4ccc([nH]4)c(-c4ccc(C(=O)O)cc4)c4nc(c(-c5ccc(C(=O)O)cc5)c5ccc2[nH]5)C=C4)C=C3)cc1 [porphyrin 2, meso-tetra (4-carboxyphenyl) porphyrin]
- effect on amount of beryllium associated with hemoglobin (in words) [1]: reduced the amount of beryllium associated with hemoglobin
- toxicity / safety of aerosol delivery to lungs (in words) (C3H/HEJ mice): maybe safely delivered as aerosols; also recorded: non-toxic

Molecule: Oxyhemoglobin: Human hemoglobin reduced with sodium hydrosulfite, iron in the +II oxidation state
- Molar ratio (moles Be:moles Hb) Mean (Human hemoglobin): 2.25 moles Be:moles Hb
- μg beryllium/mg hemoglobin Mean (Human hemoglobin): 0.438 μg beryllium/mg hemoglobin

Molecule: O=S(=O)(O)c1ccc(-c2c3nc(c(-c4ccc(S(=O)(=O)O)cc4)c4ccc([nH]4)c(-c4ccc(S(=O)(=O)O)cc4)c4nc(c(-c5ccc(S(=O)(=O)O)cc5)c5ccc2[nH]5)C=C4)C=C3)cc1 [porphyrin 4, meso-tetra (4-sulfonatophenyl) porphyrin]
- effect on amount of beryllium associated with hemoglobin (in words) [1]: reduced the amount of beryllium associated with hemoglobin
- toxicity / safety of aerosol delivery to lungs (in words) (C3H/HEJ mice): maybe safely delivered as aerosols
- toxicity / safety of aerosol delivery to lungs (in words) (C3H/HEJ mice; listed as meso-tetra-(4-sulfonate phenyl)): non-toxic

Molecule: magnesium phthalocyanine tetrasulfonate tetra sodium salt porphyrin [porphyrin 5]
- effect on amount of beryllium associated with hemoglobin (in words) [1]: reduced the amount of beryllium associated with hemoglobin
- change in proton NMR spectra on addition of beryllium [2]: suggest a reaction of beryllium with the porphyrin

Molecule: Carboxyhemoglobin: oxyhemoglobin gently bubbled with carbon monoxide for 5 minutes
- Molar ratio (moles Be:moles Hb) Mean (Human hemoglobin): 1.88 moles Be:moles Hb
- μg beryllium/mg hemoglobin Mean (Human hemoglobin): 0.351 μg beryllium/mg hemoglobin

Molecule: phthalocyanine tetrasulfonate [porphyrin 3]
- effect on amount of beryllium associated with hemoglobin (in words) [1]: reduced the amount of beryllium associated with hemoglobin
- reduction of the amount of beryllium associated with hemoglobin ([1]; molar excess of porphyrin, 30 minutes at 37° C.): 59%
- toxicity / safety of aerosol delivery to lungs (in words) (C3H/HEJ mice): maybe safely delivered as aerosols
- change in proton NMR spectra on addition of beryllium [2]: suggest a reaction of beryllium with the porphyrin

Molecule: Methemoglobin: Human hemoglobin (Sigma H7379), >95% methemoglobin, iron in the +III oxidation state
- Molar ratio (moles Be:moles Hb) Mean (Human hemoglobin): 0.13a moles Be:moles Hb
- μg beryllium/mg hemoglobin Mean (Human hemoglobin): 0.016^a μg beryllium/mg hemoglobin

Molecule: hemin [porphyrin 1]
- effect on amount of beryllium associated with hemoglobin (in words) [1]: reduced the amount of beryllium associated with hemoglobin
